Data on 34 compounds can be found in patent US20120122924A1, “NAMPT INHIBITORS” (ABBOTT LABORATORIES, priority 2010, published 2012).

pIC50: −log10 of the molar value.

Chain of recombinant, human, C-terminally-His tagged NAMPT (P43490 whole entry): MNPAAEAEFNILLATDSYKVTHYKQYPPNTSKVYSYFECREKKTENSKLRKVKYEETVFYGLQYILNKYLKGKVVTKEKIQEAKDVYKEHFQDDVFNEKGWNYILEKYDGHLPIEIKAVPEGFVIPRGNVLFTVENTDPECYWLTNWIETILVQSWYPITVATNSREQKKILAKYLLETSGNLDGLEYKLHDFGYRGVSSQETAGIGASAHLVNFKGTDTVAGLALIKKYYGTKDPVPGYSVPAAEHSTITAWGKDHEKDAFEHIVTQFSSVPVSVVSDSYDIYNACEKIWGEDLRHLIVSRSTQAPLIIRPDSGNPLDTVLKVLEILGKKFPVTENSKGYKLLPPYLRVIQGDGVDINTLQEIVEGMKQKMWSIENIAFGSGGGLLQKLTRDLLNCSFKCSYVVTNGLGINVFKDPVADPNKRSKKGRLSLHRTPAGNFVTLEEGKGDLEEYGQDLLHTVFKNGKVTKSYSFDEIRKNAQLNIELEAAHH

The target in this assay is recombinant, human, C-terminally-His tagged NAMPT (Homo sapiens, UniProt P43490). The assay is described as follows: Time-Resolved Fluorescence Resonance Energy Transfer (TR-FRET) binding assay of NAMPT. The conditions noted are these: 6.8 nM NAMPT, 200 nM probe (Oregon Green 488-conjugated APO866), 1 nM Tb-anti-His antibody, 2-3 hours. As for the experimental part:
Determination of the utility of compounds having Formula (I) as binders to and inhibitors of NAMPT was performed using a Time-Resolved Fluorescence Resonance Energy Transfer (TR-FRET) binding assay.
Time-Resolved Fluorescence Resonance Energy Transfer (TR-FRET) Binding Assay of NAMPT
The assay was carried out in 18 uL low volume plates (Owens Corning) in reaction buffer (50 mM HEPES (NaOH), pH 7.5, 100 mM NaCl, 10 mM MgCl2, 1 mM DTT, 1% Glycerol) using 6.8 nM recombinant, human, C-terminally-His tagged NAMPT, 1 nM Tb-anti-His antibody (Invitrogen, Cat # PV5895), and 200 nM probe (Oregon Green 488-conjugated APO866; A-1251667.0). Plates were covered, and reactions were carried out for 2-3 hours. Plates were read with Envision (Laser Lantha low volume protocol) after 2 to 3 hours. Excitation was carried out at 337 nm, and the ratio of emission of Oregon Green (520 nm) to terbium (492 nm) was determined and used to calculate IC50 values of test compounds.
A general note: In TR-FRET formats the signal depends on donor and acceptor labels being close together.
For the compound `O=C(CCC(F)(F)F)Nc1ccc(NC(=O)N2CCc3ccccc3C2)cc1` [Example 73, N-{4-[(4,4,4-trifluorobutanoyl)amino]phenyl}-3,4-dihydroisoquinoline-2(1H)-carboxamide], the pIC50 was 7.48.
To `CCOC(=O)CCCCCNC(=O)N1CCc2ccccc2C1` [Example 60, ethyl 6-[(3,4-dihydroisoquinolin-2(1H)-ylcarbonyl)amino]hexanoate] belongs 5.86.
To `CNC(=O)N1CC=C(c2ccc(NC(=O)N3CCc4ccccc4C3)cc2)CC1` [Example 48, N-{4-[1-(methylcarbamoyl)-1,2,3,6-tetrahydropyridin-4-yl]phenyl}-3,4-dihydroisoquinoline-2(1H)-carboxamide] belongs 7.49; to `CC(=O)N1CC=C(c2ccc(NC(=O)N3CCc4ccccc4C3)cc2)CC1` [Example 50, N-[4-(1-acetyl-1,2,3,6-tetrahydropyridin-4-yl)phenyl]-3,4-dihydroisoquinoline-2(1H)-carboxamide], 7.23; to `O=C(Nc1ccc(-c2cnn(Cc3ccccc3)c2)cc1)N1CCc2ccccc2C1` [Example 38, N-[4-(1-benzyl-1H-pyrazol-4-yl)phenyl]-3,4-dihydroisoquinoline-2(1H)-carboxamide], 6.41.
In the case of `CC(C)C(=O)NCCc1ccc(NC(=O)N2CCc3ccccc3C2)cc1` [Example 62, N-{4-[2-(isobutyrylamino)ethyl]phenyl}-3,4-dihydroisoquinoline-2(1H)-carboxamide], the pIC50 was 5.83.
With `O=C(Nc1ccc(-c2noc(Cc3ccccc3)n2)cc1)N1CCc2ccccc2C1` [Example 57, N-[4-(5-benzyl-1,2,4-oxadiazol-3-yl)phenyl]-3,4-dihydroisoquinoline-2(1H)-carboxamide], the pIC50 was 6.05.
To `O=C(Nc1ccc(C(F)(F)F)cc1)N1CCc2ccccc2C1` [Example 97, N-[4-(trifluoromethyl)phenyl]-3,4-dihydroisoquinoline-2(1H)-carboxamide] belongs 5.83; to `CCC(C)CC(=O)Nc1ccc(NC(=O)N2CCc3ccccc3C2)cc1` (racemic) [Example 69, N-{4-[((3R)-3-methylpentanoyl)amino]phenyl}-3,4-dihydroisoquinoline-2(1H)-carboxamide and N-{4-[((3S)-3-methylpentanoyl)amino]phenyl}-3,4-dihydroisoquinoline-2(1H)-carboxamide], 8.19; to `O=C(Nc1ccc(NC(=O)N2CCc3ccccc3C2)cc1)C1Cc2ccccc2O1` (racemic) [Example 68, N-{4-[((2R)-2,3-dihydro-1-benzofuran-2-ylcarbonyl)amino]phenyl}-3,4-dihydroisoquinoline-2(1H)-carboxamide and N-{4-[((2S)-2,3-dihydro-1-benzofuran-2-ylcarbonyl)amino]phenyl}-3,4-dihydroisoquinoline-2(1H)-carboxamide], 8.35.
Consider `O=C(NCCCc1ccccc1)c1ccc(NC(=O)N2CCc3ccccc3C2)cn1` [Example 21, N-{6-[(3-phenylpropyl)carbamoyl]pyridin-3-yl}-3,4-dihydroisoquinoline-2(1H)-carboxamide], for which the pIC50 is 6.54.
As for `O=C(NCCCc1ccccc1)c1ccc(NC(=O)N2CCc3ccncc3C2)cc1` [Example 25, N-{4-[(3-phenylpropyl)carbamoyl]phenyl}-3,4-dihydro-2,7-naphthyridine-2(1H)-carboxamide], the pIC50 was 6.22.
To `O=C(COCc1ccccc1)Nc1ccc(NC(=O)N2CCc3ccccc3C2)cc1` [Example 63, N-(4-{[(benzyloxy)acetyl]amino}phenyl)-3,4-dihydroisoquinoline-2(1H)-carboxamide] belongs 7.97; to `O=C(NCCc1cccs1)c1ccc(NC(=O)N2CCc3cnccc3C2)cc1` [Example 12, N-(4-{[2-(2-thienyl)ethyl]carbamoyl}phenyl)-3,4-dihydro-2,6-naphthyridine-2(1H)-carboxamide], 7.34; to `CCCC(=O)N1CC=C(c2ccc(NC(=O)N3CCc4ccccc4C3)cc2)CC1` [Example 44, N-[4-(1-butyryl-1,2,3,6-tetrahydropyridin-4-yl)phenyl]-3,4-dihydroisoquinoline-2(1H)-carboxamide], 7.87.
To `CC(C)CCNC(=O)c1ccc(NC(=O)N2CCc3ccccc3C2)cc1` [Example 1, N-{4-[(3-methylbutyl)carbamoyl]phenyl}-3,4-dihydroisoquinoline-2(1H)-carboxamide] belongs 7.78.
Take `COC1CCC(C(=O)Nc2ccc(NC(=O)N3CCc4ccccc4C3)cc2)CC1` (stereo not shown) [Example 64, N-(4-{[(4-methoxycyclohexyl)carbonyl]amino}phenyl)-3,4-dihydroisoquinoline-2(1H)-carboxamide]: the pIC50 was 7.26.
Turning to `CC(C)CCn1cc(NC(=O)c2ccc(NC(=O)N3CCc4ccccc4C3)cc2)cn1` [Example 11, N-(4-{[1-(3-methylbutyl)-1H-pyrazol-4-yl]carbamoyl}phenyl)-3,4-dihydroisoquinoline-2(1H)-carboxamide], the pIC50 is 7.36.
`O=C(NCCc1cccs1)c1ccc(NC(=O)N2CCc3ccncc3C2)cc1` [Example 30, N-(4-{[2-(2-thienyl)ethyl]carbamoyl}phenyl)-3,4-dihydro-2,7-naphthyridine-2(1H)-carboxamide]: the pIC50 was 5.68.
To `O=C(Nc1ccc(NC(=O)N2CCc3ccccc3C2)cc1)c1ccc[nH]1` [Example 86, N-{4-[(1H-pyrrol-2-ylcarbonyl)amino]phenyl}-3,4-dihydroisoquinoline-2(1H)-carboxamide] belongs 6.42; to `CCCCCCC(=O)Nc1ccc(NC(=O)N2CCc3ccccc3C2)cc1` [Example 72, N-[4-(heptanoylamino)phenyl]-3,4-dihydroisoquinoline-2(1H)-carboxamide], 7.77.
With `CC(C)CCNC(=O)c1ccc(NC(=O)N2CCc3ccccc3C2)nc1` [Example 10, N-{5-[(3-methylbutyl)carbamoyl]pyridin-2-yl}-3,4-dihydroisoquinoline-2(1H)-carboxamide], the pIC50 is 7.53.
To `O=C(NCCc1cccs1)c1ccc(NC(=O)N2CCc3ccccc3C2)cc1` [Example 17, N-(4-{[2-(2-thienyl)ethyl]carbamoyl}phenyl)-3,4-dihydroisoquinoline-2(1H)-carboxamide] belongs 6.75; to `O=C(NCCc1cccs1)c1ccc(NC(=O)N2CCc3ccc(F)cc3C2)cc1` [Example 23, 7-fluoro-N-(4-{[2-(2-thienyl)ethyl]carbamoyl}phenyl)-3,4-dihydroisoquinoline-2(1H)-carboxamide], 6.44; to `Nc1ccc(CCC(=O)Nc2ccc(NC(=O)N3CCc4ccccc4C3)cc2)cc1` [Example 82, N-(4-{[3-(4-aminophenyl)propanoyl]amino}phenyl)-3,4-dihydroisoquinoline-2(1H)-carboxamide], 7.31.
In the case of `CC(C)CCNC(=O)Cc1ccc(NC(=O)N2CCc3ccccc3C2)cc1` [Example 29, N-(4-{2-[(3-methylbutyl)amino]-2-oxoethyl}phenyl)-3,4-dihydroisoquinoline-2(1H)-carboxamide], the pIC50 was 5.82.
To `CC(C)CCC(=O)Nc1ccc(NC(=O)N2CCc3ccccc3C2)cc1` [Example 31, N-{4-[(4-methylpentanoyl)amino]phenyl}-3,4-dihydroisoquinoline-2(1H)-carboxamide] belongs 8.21; to `O=C(Nc1ccc(NC(=O)N2CCc3ccccc3C2)cc1)C1CCOC1` (racemic) [Example 75, N-{4-[((3R)-tetrahydrofuran-3-ylcarbonyl)amino]phenyl}-3,4-dihydroisoquinoline-2(1H)-carboxamide and N-{4-[((3S)-tetrahydrofuran-3-ylcarbonyl)amino]phenyl}-3,4-dihydroisoquinoline-2(1H)-carboxamide], 6.71.
To `CC(C)CCNC(=O)c1ccc(NC(=O)N2CCc3ccccc3C2)cn1` [Example 18, N-{6-[(3-methylbutyl)carbamoyl]pyridin-3-yl}-3,4-dihydroisoquinoline-2(1H)-carboxamide] belongs 6.75.
To `O=C(NCc1ccccc1)c1ccc(NC(=O)N2CCc3ccccc3C2)cc1` [Example 8, N-[4-(benzylcarbamoyl)phenyl]-3,4-dihydroisoquinoline-2(1H)-carboxamide] belongs 7.63; to `O=C(CC1CCCC1)Nc1ccc(NC(=O)N2CCc3ccccc3C2)cc1` [Example 77, N-{4-[(cyclopentylacetyl)amino]phenyl}-3,4-dihydroisoquinoline-2(1H)-carboxamide], 8.29; to `CCn1cc(-c2ccc(NC(=O)N3CCc4ccccc4C3)cc2)cn1` [Example 40, N-[4-(1-ethyl-1H-pyrazol-4-yl)phenyl]-3,4-dihydroisoquinoline-2(1H)-carboxamide], 6.19.
With `O=C(CCC(=O)c1cccs1)Nc1ccc(NC(=O)N2CCc3ccccc3C2)cc1` [Example 66, N-(4-{[4-oxo-4-(2-thienyl)butanoyl]amino}phenyl)-3,4-dihydroisoquinoline-2(1H)-carboxamide], the pIC50 is 7.82.
Take `O=C(Nc1ccc(NC(=O)N2CCc3ccccc3C2)cc1)c1cncs1` [Example 87, N-{4-[(1,3-thiazol-5-ylcarbonyl)amino]phenyl}-3,4-dihydroisoquinoline-2(1H)-carboxamide]: the pIC50 is 6.94.

A word on the pIC50: it is the IC50 on a negative log10 scale, so that one unit is a factor of ten.
